Results from PMC12648443, “Modifications of NU-9, a potent protein aggregation inhibitor. Properties and activity in a cellular model of amyotrophic lateral sclerosis” (Bioorganic chemistry, 2025).

Columns and labels:
[1] = test system: MG132-induced mutant SOD1 intracellular aggregation in PC12-SOD1^G85R YFP cells; test: Protection against MG132-induced mut-SOD1 intracellular aggregation (fluorescence microscopy); type: cell-based
Method: The PC12 Tet-Off-SOD1^G85R YFP cells were cultured in DMEM media supplemented with 10 % horse serum, 5 % Tet-approved FBS, 1 % Penstrep, 1× L-glutamine, 200 μg/mL hygromycin, 100 μg/mL G418, with 1 μg/mL Doxycycline and were incubated at 37 °C in humidified air with […] until 90–95 % confluency. To induce the expression of SOD1^G85R YFP, the Doxycycline was removed at least 4 days before the experiment. To remove the Doxycycline, the media was removed, and the cells were washed 3 times with 1xPBS. The cells were then cultured in standard culture media without Doxycycline. To set up the assay, the cells were then seeded into 96-well cell culture plates (Greiner Bio-One Catalog #655090) at a concentration of 50,000 cells/well with a final volume of 100 μL/well and incubated in the CO2 incubator at 37 °C for 24 h. The media were removed from the cells and replaced with 100 μL of media containing 0.1 % DMSO or compounds, and incubated in the CO2 incubator at 37 °C for 6 h. The media were then replaced with fresh 100 μL of media containing the diluted compounds with 0.7 μM (−)-MG-132, and the plates were incubated for 72 h under culture conditions. After 72 h, the cells were stained with Hoescht 33,342 (55 μg/mL, 10 μL/well) and imaged (lex = 358, 513 nm) using a Molecular Devices ImageXpress Micro Confocal High-Content Imaging System equipped with a 40× objective. […] Image binning was set to 2. DAPI fluorescence was captured using an exposure time of 300 ms, and FITC fluorescence was captured using an exposure time of 400 ms. A 13-plane z-series was acquired for each field of view with a step size of 3 μm. For each condition, 2 sets of 9 images were generated in a 3 × 3 grid to separately image the SOD1^G85R YFP proteins and the nuclei stained with Hoescht 33,342. Image analysis was performed with MetaXpress software (Molecular Devices) using the Transfluor module. Parameters for puncta detection (aggregates) were set with a minimum pit width of 2 μm and a maximum pit width of 5 μm. Signal intensity thresholds were defined as 700 grayscale units above the local background. The analysis provided the average area of each cell that is covered by puncta (pit/cell), which are indicated by bright green spots on the SOD1^G85RYFP image set.
The assay was performed in triplicate for each condition tested, and wells containing the media with vehicle (0.1 % DMSO) or (−)-MG-132 alone were used as controls representing the minimum and maximum aggregate formation. […] The data for EC50 determination was treated with Prism and fitted using a semi-logarithmic curve for determination of the EC50 values of NU9 and compounds 4, 6, 20 and 21.

[2] = In vitro cytotoxicity, CellTiter-Glo, HepG2; type: cell-based; details: human, HepG2 cells
Method: (§1) The HepG2 and HEK293 cells were cultured in DMEM media supplemented with 10 % FBS (heat-inactivated), 1 % Pen-strep, and L-glutamine and incubated at 37 °C in humidified air with 5 % CO2 until 85–90 % confluency. The PC12 Tet-Off-SOD1^G85R YFP cells were maintained as described in 4.2. On the day before the experiments, the cells were transferred to white bottom 96 well plates (Greiner cat. 655,083) at a concentration of 50,000 cells/100 μL of media in each well and incubated overnight at 37 °C. Stock solutions of the compounds (30 mM) in DMSO were prepared and then diluted in media to obtain the six final working solutions starting at 30 μM, and serial dilutions were obtained with the lowest concentration at 0.25 μM. The media were removed and fresh media containing the compounds or the vehicle DMSO (0.1 % v/v) were transferred to the plates containing HepG2 and HEK293 cells and the plates were incubated for 24 or 48 h at 37 °C. The PC12 Tet-Off-SOD1^G85R YFP cells compound treatment was performed as described in section 4.2 and using a 9-point 2-fold serial dilution of the compounds starting at 15 μM and the lowest concentration at 0.05 μM. After incubation, the plates were cooled to room temperature and 25 μL of CellTiter-Glo® solution was added to each well. The plates were loaded into a BioTek Synergy H1 MD plate reader and shaken for 2 min, stabilized for 10 min without shaking, and then the luminescence values were read for each well (luminescence integration step 1 ms). Wells containing media with the vehicle DMSO with or without cells were used as controls to represent, respectively, the maximum viability and the lowest viability (background signal) for the cytotoxicity studies with HepG2 and HEK293 cell lines. The viability values for the assay performed with the PC12 Tet-Off-SOD1^G85R YFP cells were normalised for the vehicle (0.1 % DMSO) and (−)-MG-132 alone treatments, which represented respectively the […] viability for the assay.
(§2) The results are presented as an average of three independent experiments, each performed in triplicate, for the cytotoxicity experiments performed with HepG2 and HEK293 cells. The results for the protective screening with the PC12 Tet-Off-SOD1^G85R YFP cells are presented as an average of four replicates.

[3] = test system: HepG2 cells; test: In vitro cytotoxicity, CellTiter-Glo, HepG2; type: cell-based; details: cytotoxicity EC50 (HepG2, HEK293) versus PC12-SOD1^G85R EC50
Method: as §1, §2

[4] = In vitro cytotoxicity, CellTiter-Glo, HEK293; type: cell-based; details: human, HEK293 cells
Method: as §1, §2

[5] = test system: PC12-SOD1^G85R YFP cells co-treated with MG132; test: Viability screening against MG132-induced toxicity, CellTiter-Glo; type: cell-based; details: PC12-SOD1^G85R YFP cells co-treated with MG132 and the compounds; read-out: PC12-SOD1^G85R EC50, in vitro viability screening (protection against MG132-induced toxicity)
Method: as §1, with “assay. […]” for “assay.”

[6] = pig, PAMPA, 18 h, 250 μM, pH 7.5
Method: (§3) A solution of 1 × PBS (pH 7.5) was initially prepared by the dilution of a commercially available 10 × PBS solution. […] A solution of porcine brain lipid (PBL) (20 mg/mL in dodecane) was prepared, and 4 μL of this solution was used to coat the filters on the bottom of the PAMPA donor plates (Sigma Aldrich #MAIPNTR10). After air drying for 20 min, the donor plate wells were charged with 250 μL of the solutions of the test compounds or the controls. The donor plate was then placed over the acceptor plate (Sigma Aldrich #MATRNPS50), in which wells were previously filled with 1 × PBS (2 % DMSO v/v) solution. The PAMPA sandwich was closed with parafilm and incubated at 25 °C for 18 h in a humidity-saturated atmosphere with orbital agitation. […] The UV spectra (250–400 nm) of each well were acquired on a BioTek Synergy H1 MD plate reader equipped with a monochromator at room temperature.
(§4) CA(t) is the concentration of the compounds at the final time of incubation on the acceptor well; CD(0) and CD(t) are the concentration of the compounds at the initial time of incubation and at the final time of incubation on the donor well, respectively.

[7] = set-up: method as in PMID 33634973; details: human microsomes; cited from earlier work
[8] = set-up: method as in PMID 33634973; details: mouse microsomes; cited from earlier work
[9] = test system: cells containing SOD1 mutations associated with ALS; set-up: method as in PMID 21073276, PMID 22189273, PMID 22837812; details: Fig. 1, evolution of CHD series; cited from earlier work
[10] = test system: primary hippocampal neuronal cells; set-up: method as in PMID 40030015; details: cited from earlier work
[11] = test system: primary hippocampal neurons; set-up: method as in PMID 40030015; details: cited from earlier work
[12] = Parallel artificial membrane permeability assay - blood brain barrier (PAMPA-BBB); details: pig, PAMPA, pH 7.5
Method: as §3, §4

In the case of `C[C@H](Oc1cc(C(F)(F)F)cc(C(F)(F)F)c1)C1CC(=O)CC(=O)C1` [NU-9], the EC50 ([1]; PC12-SOD1^G85R YFP cells, 0.7 μM MG132, 72 h, Inactive = no decrease of aggregates at 10 μM vs vehicle) is reported as 2.52 ± 0.38 µM, the “decrease in MG132-induced SOD-1^G85R aggregate formation” value ([1]; at 10 μM, 72 h) is reported as “marked decrease” and the viability at 24 h, 30 μM ([2]; 30 μM, 24 h, relative to untreated cells, read-out: Percentage of viable cells observed at 30 μM treatment, HepG2) is reported as 93.5%. The viability at 48 h, 30 μM ([2]; 30 μM, 48 h, relative to untreated cells, read-out: Percentage of viable cells observed at 30 μM treatment, HepG2) was 96.3%, the EC50 at 24 h ([2]; cytotoxicity, 24 h) was > 30 µM and the EC50 at 48 h ([2]; cytotoxicity, 48 h) was > 30 µM. The “EC50 Fold difference” value [3] was >12, the viability at 24 h, 30 μM ([4]; 30 μM, 24 h, relative to untreated cells, read-out: Percentage of viable cells observed at 30 μM treatment, HEK293) was 85.7% and the viability at 48 h, 30 μM ([4]; 30 μM, 48 h, relative to untreated cells, read-out: Percentage of viable cells observed at 30 μM treatment, HEK293) was 89.6%. The EC50 at 24 h ([4]; cytotoxicity, 24 h) was > 30 µM, the EC50 at 48 h ([4]; cytotoxicity, 48 h) was > 30 µM and the EC50 [5] was 3.37 ± 0.26 µM. For the same compound, the “Log Pe” value [6] was −5.16, the “t1/2 (human)” value [7] was 74^27 min and the “t1/2 (mouse)” value [8] was 52^27 min. For the same compound, the EC50 [9] was 0.3 µM, the Amyloid-beta oligomer build-up [10] was “capable of reducing Amyloid-beta oligomer build-up” and the LC3II puncta [11] was “capable of increasing LC3II puncta”. It also gave a Papp at 18 h, 250 μM [12] of 6.98 ± 0.14 ×10⁻⁶ cm/s.
